In PMC9422153, “A novel antibiotic combination of linezolid and polymyxin B octapeptide PBOP against clinical Pseudomonas aeruginosa strains” (Annals of Clinical Microbiology and Antimicrobials, 2022):
In brackets after ≈: the same amount, converted by molar mass. Where two headings read alike, the source gives them in different places. Bridge positions count the residues as written; N and C are the ends. Square brackets hold non-standard residues; d marks the D form. Peptide text beside a SMILES is read from it. Dab = NCC[C@H](N)C(=O)O

Key:
[1] = test system: P. aeruginosa ATCC27853; assay: MIC, micro-dilution method; type: cell-based; settings: Pseudomonas aeruginosa
Method: (§1) The MICs (minimal inhibitory concentrations) were determined for different P. aeruginosa strains using micro-dilution method, with a concentration of 1 × 10^5 CFU/mL on LB broth for 24 h, according to the published procedures. The experiment was carried out in three repeats.

[2] = test system: P. aeruginosa PA14; assay: MIC, micro-dilution method; type: cell-based; settings: Pseudomonas aeruginosa
Method: as §1

[3] = test system: P. aeruginosa PA2; assay: MIC, micro-dilution method; type: cell-based; settings: Pseudomonas aeruginosa
Method: as §1

[4] = test system: P. aeruginosa PAB41; assay: MIC, micro-dilution method; type: cell-based; settings: Pseudomonas aeruginosa
Method: as §1

[5] = test system: PA2; assay: Time-kill assay, bacterial burdens in vitro; type: cell-based, Pseudomonas aeruginosa; settings: PA2, 1 × 10^5 CFU in 96-well plates; 1 h, 6 h, 12 h, 24 h; LP compared to single-treated groups
Method: (§2) To explore the antibacterial activity of LP combination in the P. aeruginosa in vitro, PA14 were cultured in 96-well plates and were treated with PBS, linezolid, PBOP or LP for 1 h, 6 h, 12 h, and 24 h.
(§3) A1–A4 1 × 10^5 CFU of PA14 were seeded in 96-well plates and treated with PBS, linezolid, PBOP or combination of linezolid and PBOP (LP) for 1 h (A1), 6 h (A2), 12 h (A3), and 24 h (A4). The bacteria burdens on the LB agar plates were counted. B1–B4 1 × 10^5 CFU of PA2 were seeded in 96-well plates and treated with PBS, linezolid, PBOP or LP for 1 h (B1), 6 h (B2), 12 h (B3), and 24 h (B4). C1–C4 1 × 10^5 CFU of PAB41 were seeded in 96-well plates and treated with PBS, linezolid, PBOP or LP for 1 h (C1), 6 h (C2), 12 h (C3), and 24 h (C4). The bacteria burdens were determined as described above.

[6] = test system: PAB41; assay: Time-kill assay, bacterial burdens in vitro; type: cell-based, Pseudomonas aeruginosa; settings: PAB41, 1 × 10^5 CFU in 96-well plates; 1 h, 6 h, 12 h, 24 h; LP compared to single-treated groups
Method: as §2, §3

[7] = test system: C. elegans infected with PA14; assay: C. elegans infection model; type: in vivo, Caenorhabditis elegans; settings: PA14 infection on SK plate, linezolid 8 μg/mL, PBOP 16 μg/mL; for bacterial loads inside C. elegans: 12 h and 24 h post infection; for survival of infected C. elegans: monitored 7 days
Method: To determine the protective effect of LP, all groups of C. elegans were infected with PA14 in slow killing (SK) agar plate and were treated with PBS, linezolid (8 μg/mL), PBOP (16 μg/mL) or LP. The mortality of the infected C. elegans was evaluated for 7 days. […] The bacterial loads inside the C. elegans were counted at 12 h or 24 h post-infection as previously described. Briefly, the infected nematodes were mixed with silicon carbide particles and vortexed at maximum speed for one minute. The resulting suspension was serially diluted and plated on a selective agar plate to determine the bacterial CFU. This experiment was performed in triplicate.

[8] = test system: all tested P. aeruginosa strains; type: cell-based, Pseudomonas aeruginosa; settings: 24 h
Method: as §1

[9] = test system: P. aeruginosa PA14; type: cell-based, Pseudomonas aeruginosa
Method: Synergistic effect of the 6 polymyxin B or polymyxin E derivatives in combination with 5 conventional antibacterial agents was detected using the checkerboard method as described on the previous study. Briefly, the serial concentrations of test compounds were prepared by a two-dimensional array. The tested dilutions were based on the MICs of the two different compounds. The fractional inhibitory concentration index (FIC) was applied to illuminate the checkerboard test based on formulas as follows: FIC Index = […] = MICA+B/MICA, and FICB = MICB+A/MICB. The value of MICA+B is indicated as the MIC value of Compound A with Compound B, and equally for MICB+A. […] The experiments were repeated in triplicate.

[10] = P. aeruginosa ATCC27853, micro-dilution, 1 × 10^5 CFU/mL, LB broth, 24 h, three repeats, read-out: MIC
[11] = P. aeruginosa PA14, micro-dilution, 1 × 10^5 CFU/mL, LB broth, 24 h, three repeats, read-out: MIC
[12] = P. aeruginosa PA2 (multidrug-resistant clinical strain), micro-dilution, 1 × 10^5 CFU/mL, LB broth, 24 h, three repeats, read-out: MIC
[13] = P. aeruginosa PAB41 (carbapenem-resistant clinical strain), micro-dilution, 1 × 10^5 CFU/mL, LB broth, 24 h, three repeats, read-out: MIC

Row | SMILES | MIC [1, 10] [µg/mL] | MIC [2, 11] [µg/mL] | MIC [3, 12] [µg/mL] | MIC [4, 13] [µg/mL] | MIC [8] | FIC (lowest FIC Index) combined with Erythromycin [9] | FIC (lowest FIC Index) combined with Lincomycin [9] | FIC (lowest FIC Index) combined with Linezolid [9] | FIC (lowest FIC Index) combined with Nisin [9] | FIC (lowest FIC Index) combined with Vancomycin [9] | further results
1 | CC(C)C[C@@H]1NC(=O)[C@@H](CC(C)C)NC(=O)[C@H](CCN)NC(=O)[C@@H](NC(=O)[C@@H](N)CCN)CCNC(=O)[C@H]([C@@H](C)O)NC(=O)[C@H](CCN)NC(=O)[C@H](CCN)NC1=O [PEOP, polymyxin E octapeptide] (H-[Dab][Dab][Dab][dL]L[Dab][Dab]T; lactam 2-C (inferred); N-terminus assumed) |  |  |  |  | over 256 µg/mL | 0.313 | 0.141 | 0.188 | 0.313 | 0.125 | 
2 | CCC[C@@H]1C[C@@H](C(=O)N[C@@H]([C@H]2O[C@H](SC)[C@H](O)[C@@H](O)[C@H]2O)[C@@H](C)O)N(C)C1 [Lincomycin, lincomycin] | > 256 | > 256 | > 256 | > 256 |  |  |  |  |  |  | 
3 | CN[C@H](CC(C)C)C(=O)N[C@H]1C(=O)N[C@@H](CC(N)=O)C(=O)N[C@H]2C(=O)N[C@H]3C(=O)N[C@H](C(=O)N[C@H](C(=O)O)c4cc(O)cc(O)c4-c4cc3ccc4O)[C@H](O)c3ccc(c(Cl)c3)Oc3cc2cc(c3O[C@@H]2O[C@H](CO)[C@@H](O)[C@H](O)[C@H]2O[C@H]2C[C@](C)(N)[C@H](O)[C@H](C)O2)Oc2ccc(cc2Cl)[C@H]1O [Vancomycin, vancomycin] |  |  |  |  |  |  |  |  |  |  | MIC ([1]; ATCC27853, 24 h): > 256 µg/mL; MIC ([2]; PA14, 24 h): > 256 µg/mL; MIC ([3]; PA2, 24 h): > 256 µg/mL; MIC ([4]; PAB41, 24 h): > 256 µg/mL
4 | CC(C)C[C@@H]1NC(=O)[C@@H](Cc2ccccc2)NC(=O)[C@H](CCN)NC(=O)[C@@H](N)CCNC(=O)[C@H]([C@@H](C)O)NC(=O)[C@H](CCN)NC(=O)[C@H](CCN)NC1=O [PBHP, polymyxin B heptapeptide] (H-[Dab][Dab][dF]L[Dab][Dab]T; lactam 1-C (inferred); N-terminus assumed) |  |  |  |  | over 256 µg/mL | 0.281 | 0.188 | 0.141 | 0.375 | 0.141 | 
5 | CC(C)C[C@@H]1NC(=O)[C@@H](Cc2ccccc2)NC(=O)[C@H](CCN)NC(=O)[C@@H](NC(=O)[C@H](CCN)NC(=O)[C@@H](N)[C@@H](C)O)CCNC(=O)[C@H]([C@@H](C)O)NC(=O)[C@H](CCN)NC(=O)[C@H](CCN)NC1=O [PBNP, polymyxin B nonapeptide] (H-T[Dab][Dab][Dab][dF]L[Dab][Dab]T; lactam 3-C (inferred); N-terminus assumed) |  |  |  |  | over 256 µg/mL | 0.188 | 0.156 | 0.156 | 0.250 | 0.250 | 
6 | CC(C)C[C@@H]1NC(=O)[C@@H](CC(C)C)NC(=O)[C@H](CCN)NC(=O)[C@@H](NC(=O)[C@H](CCN)NC(=O)[C@@H](N)[C@@H](C)O)CCNC(=O)[C@H]([C@@H](C)O)NC(=O)[C@H](CCN)NC(=O)[C@H](CCN)NC1=O [PENP, polymyxin E nonapeptide] (H-T[Dab][Dab][Dab][dL]L[Dab][Dab]T; lactam 3-C (inferred); N-terminus assumed) |  |  |  |  | over 256 µg/mL | 0.281 | 0.125 | 0.281 | 0.375 | 0.188 | 
7 | CC(C)C[C@@H]1NC(=O)[C@@H](CC(C)C)NC(=O)[C@H](CCN)NC(=O)[C@@H](N)CCNC(=O)[C@H]([C@@H](C)O)NC(=O)[C@H](CCN)NC(=O)[C@H](CCN)NC1=O [PEHP, polymyxin E heptapeptide] (H-[Dab][Dab][dL]L[Dab][Dab]T; lactam 1-C (inferred); N-terminus assumed) |  |  |  |  | over 256 µg/mL | 0.258 | 0.250 | 0.141 | 0.266 | 0.156 | 

Further lines, with some results ahead:

Row | MIC [1, 10] [µg/mL] | MIC [2, 11] [µg/mL] | MIC [3, 12] [µg/mL] | MIC [4, 13] [µg/mL] | MIC [8] | SMILES | FIC (lowest FIC Index) combined with Erythromycin [9] | FIC (lowest FIC Index) combined with Lincomycin [9] | FIC (lowest FIC Index) combined with Linezolid [9] | FIC (lowest FIC Index) combined with Nisin [9] | FIC (lowest FIC Index) combined with Vancomycin [9] | further results
8 | > 256 | > 256 | > 256 | > 256 |  | CC(=O)NC[C@H]1CN(c2ccc(N3CCOCC3)c(F)c2)C(=O)O1 [Linezolid, linezolid] |  |  |  |  |  | bacterial CFU / bactericidal activity [5]: no remarkably bactericidal activity; bacterial CFU / bactericidal activity [6]: no remarkably bactericidal activity; bacterial loads inside C. elegans [7]: a great number of bacteria were detected; survival of infected C. elegans [7]: died at day 3
9 | 4 (≈ 6.83 µM) | 2 (≈ 3.41 µM) | 4 (≈ 6.83 µM) | 2 (≈ 3.41 µM) |  | CN(C)c1cc(NC(=O)CNC(C)(C)C)c(O)c2c1C[C@H]1C[C@H]3[C@H](N(C)C)C(O)=C(C(N)=O)C(=O)[C@@]3(O)C(O)=C1C2=O [Tigecycline, tigecycline] |  |  |  |  |  | 
10 | 8 (≈ 23.9 µM) | 8 (≈ 23.9 µM) | 4 (≈ 12 µM) | 4 (≈ 12 µM) |  | CC1(C)S[C@@H]2[C@H](NC(=O)Cc3ccccc3)C(=O)N2[C@H]1C(=O)O [Penicillin G, penicillin G] |  |  |  |  |  | 
11 |  |  |  |  | over 256 µg/mL | CC(C)C[C@@H]1NC(=O)[C@@H](Cc2ccccc2)NC(=O)[C@H](CCN)NC(=O)[C@@H](NC(=O)[C@@H](N)CCN)CCNC(=O)[C@H]([C@@H](C)O)NC(=O)[C@H](CCN)NC(=O)[C@H](CCN)NC1=O [PBOP, polymyxin B octapeptide] (H-[Dab][Dab][Dab][dF]L[Dab][Dab]T; lactam 2-C (inferred); N-terminus assumed) | 0.156 | 0.094 | 0.078 | 0.313 | 0.156 | bacterial CFU / bactericidal activity [5]: no remarkably bactericidal activity; bacterial CFU / bactericidal activity [6]: no remarkably bactericidal activity; bacterial loads inside C. elegans [7]: a great number of bacteria were detected; survival of infected C. elegans [7]: died at day 3
12 | 4 (≈ 11.4 µM) |  |  | 8 (≈ 22.9 µM) |  | CC1(C)S[C@@H]2[C@H](NC(=O)[C@H](N)c3ccccc3)C(=O)N2[C@H]1C(=O)O [Ampicillin, ampicillin] |  |  |  |  |  | 
13 | 0.5 (≈ 1.38 µM) | 0.5 (≈ 1.38 µM) | 0.5 (≈ 1.38 µM) | 1 (≈ 2.77 µM) |  | CC1COc2c(N3CCN(C)CC3)c(F)cc3c(=O)c(C(=O)O)cn1c23 (stereo not drawn) [Ofloxacin, ofloxacin] |  |  |  |  |  | 
14 | > 256 | > 256 | > 256 | > 256 |  | CC[C@H]1OC(=O)[C@H](C)[C@@H](O[C@H]2C[C@@](C)(OC)[C@@H](O)[C@H](C)O2)[C@H](C)[C@@H](O[C@@H]2O[C@H](C)C[C@H](N(C)C)[C@H]2O)[C@](C)(O)C[C@@H](C)C(=O)[C@H](C)[C@@H](O)[C@]1(C)O [Erythromycin, erythromycin] |  |  |  |  |  | 
15 | 4 (≈ 8.35 µM) | 4 (≈ 8.35 µM) | 4 (≈ 8.35 µM) | 8 (≈ 16.7 µM) |  | CN(C)[C@@H]1C(O)=C(C(N)=O)C(=O)[C@@]2(O)C(O)=C3C(=O)c4c(O)ccc(Cl)c4[C@@](C)(O)[C@H]3C[C@@H]12 [Chlortetracycline, chlortetracycline] |  |  |  |  |  | 
